Measured values reported in patent US11873298B2, “Compounds and uses thereof” (JANSSEN PHARMACEUTICA NV, priority 2017, dated 2024).

Assays:
[1] = target: T1, SCD1 (Homo sapiens, UniProt O00767); assay: Growth inhibition of humanized yeast strain expressing SCD1 as sole desaturase; type: cell-based
T1 construct: host or cells: S. cerevisiae ole1Δ strain (W303 pdr1Δ pdr3Δ background), plasmid pRS316 with TDH3 promoter and CYC1 terminator
T1 sequence (O00767 1-359): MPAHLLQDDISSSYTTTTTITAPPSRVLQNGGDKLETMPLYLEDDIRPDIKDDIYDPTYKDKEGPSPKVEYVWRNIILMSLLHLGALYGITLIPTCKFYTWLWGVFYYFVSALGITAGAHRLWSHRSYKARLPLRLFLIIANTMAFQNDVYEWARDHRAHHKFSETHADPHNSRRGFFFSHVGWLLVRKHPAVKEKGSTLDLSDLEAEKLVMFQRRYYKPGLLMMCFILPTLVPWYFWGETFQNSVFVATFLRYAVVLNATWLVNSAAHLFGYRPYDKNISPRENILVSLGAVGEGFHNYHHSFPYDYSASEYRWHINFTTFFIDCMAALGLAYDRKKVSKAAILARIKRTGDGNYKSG
Outline: (§1)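 Yeast ole1Δ strain (W303 pdr1Δ pdr3Δ background) carrying plasmid-borne Ole1, SCD1 or SCD5 as sole desaturase was grown in uracil-lacking media, pre-cultured in raffinose for 6 h, then seeded in galactose medium with compound in DMSO. Growth was read as OD600 after 30° C. incubation: 24 h for Ole1, 40 h for SCD1/SCD5.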

[2] = target: T2, SCD5 (Homo sapiens, UniProt Q86SK9); assay: Growth inhibition of humanized yeast strain expressing SCD5 as sole desaturase; type: cell-based
T2 construct: host or cells: S. cerevisiae ole1Δ strain (W303 pdr1Δ pdr3Δ background), plasmid pRS316 with TDH3 promoter and CYC1 terminator
T2 sequence (Q86SK9 1-330): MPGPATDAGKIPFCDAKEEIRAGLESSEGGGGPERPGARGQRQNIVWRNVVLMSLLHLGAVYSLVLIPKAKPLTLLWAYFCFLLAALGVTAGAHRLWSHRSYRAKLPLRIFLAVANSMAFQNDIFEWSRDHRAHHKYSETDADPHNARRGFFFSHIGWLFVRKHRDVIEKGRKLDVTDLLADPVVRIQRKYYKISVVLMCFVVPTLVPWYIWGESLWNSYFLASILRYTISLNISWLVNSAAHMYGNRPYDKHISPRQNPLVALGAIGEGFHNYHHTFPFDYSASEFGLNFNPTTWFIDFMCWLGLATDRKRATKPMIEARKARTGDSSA
Outline: as §1

[3] = growth inhibition of humanized yeast strain expressing human SCD1
[4] = growth inhibition of humanized yeast strain expressing human SCD5
[5] = humanized yeast strain expressing SCD1
[6] = humanized yeast strain expressing SCD5

| Compound | IC50 ([1]; humanized yeast strain, 40 h) [µM] | IC50 ([2]; humanized yeast strain, 40 h) [µM] | other results |
| --- | --- | --- | --- |
| CC(N1CCC(c2nc(-c3ccc4cnn(C5COC5)c4c3)no2)CC1)C(F)(F)F (stereo not shown) [Compound 1091] | > 45 | 3.62 | – |
| CC(C)n1ncc2ccc(-c3noc(C4CCN(C(=O)CNC(=O)c5ccccc5)CC4(F)F)n3)cc21 (stereo not shown) [Compound 679] | – | – | IC50 [1, 3]: > 45 µM; IC50 [2, 4]: > 45 µM |
| CC(C)n1ncc2ccc(-c3noc(C4CCN(C(=O)CNC(=O)C5CC5)CC4(F)F)n3)cc21 (stereo not shown) [Compound 579] | – | – | IC50 [1, 5]: > 45 µM; IC50 [2, 6]: > 45 µM |
| CC(C)n1nc(CCO)c2ccc(-c3noc(C4CCN(C(=O)OC(C)(C)C)CC4)n3)cc21 [Compound 699] | – | – | IC50 [1, 3]: > 45 µM; IC50 [2, 4]: 7.65 µM |
| O=C(C1CCC1)N1CCC(c2noc(-c3ccnc(N4CCOCC4)c3)n2)CC1 [Compound 1105] | > 45 | 0.549 | – |
| Cc1nn(C)c2cc(-c3noc(C4CCN(C(=O)OC(C)(C)C)CC4(F)F)n3)ccc12 (stereo not shown) [Compound 504] | – | – | IC50 [1, 5]: > 45 µM; IC50 [2, 6]: 14.8 µM |
| CC(C)c1nccn2cc(-c3nc(C4CCN(C(=O)OC(C)(C)C)CC4)no3)cc12 [Compound 901] | > 45 | > 45 | – |
| Clc1cnc2n1CCN(c1noc(-c3ccc4cn[nH]c4c3)n1)C2 [Compound 904] | > 45 | 7.62 | – |
| CC1(OC(=O)N2CCC(c3noc(-c4ccnc([C@H]5CCOC5)c4)n3)CC2)CC1 [Compound 1136] | > 45 | 0.01 | – |
| CC(C)(C)OC(=O)N1CCN(c2noc(-c3ccc4cnn(C5CS(=O)(=O)C5)c4c3)n2)CC1 [Compound 997] | > 45 | 0.022 | – |
| CCC(=O)N1CCC(c2noc(-c3ccc4cnn(C5CCOC5)c4c3)n2)CC1 (stereo not shown) [Compound 975] | > 45 | 0.01 | – |
| CC(C)(C)CC(=O)N1CCC(c2nc(-c3ccc4cnn(C5(C)COC5)c4c3)no2)CC1 [Compound 807] | > 45 | 0.247 | – |
| O=C(C1CC2(CC2)C1)N1CCN(c2nnc(-c3ccc4cnn(C5COC5)c4c3)o2)CC1 [Compound 993] | > 45 | 3.81 | – |
| CC(C)n1ncc2cnc(-c3cc(C4CCN(C(=O)OC(C)(C)C)CC4)on3)cc21 [Compound 885] | 25.4 | 0.01 | – |
| O=C(OC1CC1)N1CCC(c2noc(-c3cnc4cnn(C5COC5)c4c3)n2)CC1 [Compound 1139] | > 45 | 0.096 | – |
| CC(C)n1ncc2ccc(-c3nc(C4CN(C(=O)CC(C)(C)C)C4)no3)cc21 [Compound 606] | – | – | IC50 [1, 3]: > 45 µM; IC50 [2, 4]: 0.737 µM |
| O=C(c1ccccc1F)N1CCN(c2noc(-c3ccc4cnn(C5CNC5)c4c3)n2)CC1 [Compound 957] | 27.9 | 0.01 | – |
| CC(C)(C)OC(=O)N1CCC(c2nc(-c3ccc4cnn([C@H]5C[C@](C)(O)C5)c4c3)no2)CC1 [Compound 820] | > 45 | 3.74 | – |
| CC(C)n1ncc2ccc(-c3noc(N4C[C@@H]5CN(C(=O)OC(C)(C)C)C[C@H]5C4)n3)cc21 [Compound 513] | – | – | IC50 [1, 5]: > 45 µM; IC50 [2, 6]: > 45 µM |
| CC(C)n1nc(CO)c2ccc(-c3noc(C4CCN(C(=O)OC(C)(C)C)CC4)n3)cc21 [Compound 781] | > 45 | 4.8 | – |
| Cc1nn(C)c2cc(-c3noc(C4CCN(C(=O)[C@H]5CC(=O)N(c6cccc(C#N)c6)C5)CC4(F)F)n3)ccc12 (stereo partly shown) [Compound 631] | – | – | IC50 [1, 3]: > 45 µM; IC50 [2, 4]: > 45 µM |
| c1cc2cnn(C3COC3)c2cc1-c1nc(C2CCCNCC2)no1 (stereo not shown) [Compound 863] | > 45 | > 45 | – |
| CN1CC2CN(c3nc(-c4ccc5cn(C6COC6)nc5c4)no3)CCN2C1=O (stereo not shown) [Compound 1143] | > 45 | > 45 | – |
| CC(C)(C)OC(=O)N1CCC(c2noc(-c3ccc4cnn([C@H]5C[C@@H](O)C5)c4c3)n2)CC1 [Compound 933] | > 45 | 0.2 | – |
| CC(C)(C)OC(=O)N1CCC(c2noc(-c3ccc4ccn(C5COC5)c4c3)n2)CC1 [Compound 1039] | 15.7 | 0.01 | – |
| CC(C)(C)OC(=O)N1CCC(c2nc(-c3ccn4cnc(C#N)c4c3)no2)CC1 [Compound 833] | > 45 | > 45 | – |
| O=C(C1CC12CC2)N1CCN(c2nnc(-c3ccc4cnn(C5COC5)c4c3)o2)CC1 (stereo not shown) [Compound 991] | > 45 | > 45 | – |
| CC(C)(C)OC(=O)N1C[C@@H]2[C@H](C1)[C@H]2C(=O)NCc1ccccc1 [Compound 771] | > 45 | > 45 | – |

| Compound | IC50 ([1]; humanized yeast strain, 40 h) [µM] | IC50 ([2]; humanized yeast strain, 40 h) [µM] | other results |
| --- | --- | --- | --- |
| CC(C)n1ncc2ccc(-c3cc(C4CCN(C(=O)OC(C)(C)C)CC4)on3)nc21 [Compound 835] | > 45 | > 45 | – |
| CC(C)(C)OC(=O)N1CCC(c2nc(-c3ccnc(C4CCOC4)c3)no2)CC1 (stereo not shown) [Compound 992] | > 45 | 0.081 | – |
| O=C1CC(c2noc(-c3ccc4cnn(C5COC5)c4c3)n2)CCN1CC1CC1 (stereo not shown) [Compound 1141] | > 45 | 0.865 | – |
| CC(C)n1ncc2ccc(-c3noc([C@H]4CC[C@@H](O)CC4)n3)cc21 [Compound 654] | – | – | IC50 [1, 3]: > 45 µM; IC50 [2, 4]: > 45 µM |
| CN(c1cc(-c2nc(N3CCN(C(=O)OC(C)(C)C)CC3)no2)ccn1)C1COC1 [Compound 1022] | > 45 | 0.01 | – |
| CNC(=O)O[C@H]1CC[C@@H](c2nc(-c3ccc4cnn(C(C)C)c4c3)no2)CC1 [Compound 647] | – | – | IC50 [1, 3]: > 45 µM; IC50 [2, 4]: 9.37 µM |
| O=C(N1CCN(c2noc(-c3ccc4cnn(C5COC5)c4c3)n2)CC(F)(F)C1)C1(F)CC1 [Compound 1057] | > 45 | 0.023 | – |
| CC(C)(C)OC(=O)N1CCN(c2noc(-c3ccnc(Cl)c3)n2)CC1 [Compound 754] | > 45 | 16.5 | – |
| Clc1cnc2n1CCN(c1noc(-c3ccc4cnn(C5CCC5)c4c3)n1)C2 [Compound 905] | > 45 | > 45 | – |
| CC(C)n1ncc2cnc(-c3cc(C4CCN(C(=O)OC5(C)CC5)CC4)on3)cc21 [Compound 919] | > 45 | 0.18 | – |
| COC(=O)N1CCN(c2nc(-c3ccc4cnn(C5CCOC5)c4c3)no2)CC1 (stereo not shown) [Compound 803] | 12.9 | 0.679 | – |
| CC(C)n1ncc2ccc(-c3nc(N4CCNCC4)no3)cc21 [Compound 798] | > 45 | > 45 | – |
| C[C@@H]1C[C@H](c2noc(-c3ccc4cnn(C5COC5)c4c3)n2)CCN1C(=O)OC(C)(C)C [Compound 1017] | 17.1 | 0.01 | – |
| CC(C)(C)OC(=O)N1CCC(c2noc(-c3cc(F)cc(N4CCOCC4)c3)n2)CC1 [Compound 1086] | > 45 | 0.019 | – |
| Cc1nn(C)c2cc(-c3noc(C4CCN(c5nc6ccccc6o5)CC4)n3)ccc12 [Compound 514] | – | – | IC50 [1, 5]: > 45 µM; IC50 [2, 6]: > 45 µM |
| Cn1ncc2ccc(-c3noc(C4CCN(C(=O)OC(C)(C)C)CC4)n3)cc21 [Compound 359] | – | – | SCD1 % Max Inhibition [1, 5]: 55.70%; IC50 [2, 6]: > 45 µM; SCD5 % Max Inhibition [2, 6]: 0.81% |
| CC(C)(C)OC(=O)N1CCC(c2nc(-c3ccc4cnn(C5CC(=O)C5)c4c3)no2)CC1 [Compound 787] | 31.5 | 0.108 | – |
| COC(=O)N1CCC(c2noc(-c3cc(F)c4cnn(C5CCOC5)c4c3)n2)CC1 (stereo not shown) [Compound 1073] | 8.36 | 0.00252 | – |
| CC(C)n1ncc2ccc(-c3noc(C4CCN(C(=O)CNC(=O)c5ccc(C#N)cc5)CC4(F)F)n3)cc21 (stereo not shown) [Compound 552] | – | – | IC50 [1, 5]: > 45 µM; IC50 [2, 6]: > 45 µM |
| CC(CCO)n1ncc2ccc(-c3noc(C4CCN(C(=O)OC(C)(C)C)CC4)n3)cc21 (stereo not shown) [Compound 641] | – | – | IC50 [1, 3]: > 45 µM; IC50 [2, 4]: 6.72 µM |
| COC(=O)N1CCN(c2nc(-c3ccc4cnn(C(C)C)c4c3)no2)CC1 [Compound 356] | – | – | SCD1 % Max Inhibition [1, 5]: 51.18%; IC50 [2, 6]: > 45 µM; SCD5 % Max Inhibition [2, 6]: 2.88% |
| O=C(C1CCC1)N1CCCN(c2noc(-c3ccc4cnn(C5COC5)c4c3)n2)CC1 [Compound 961] | > 45 | > 45 | – |
| CC(C)n1ncc2ccc(-c3noc(N4CCC(C(CO)CCl)CC4)n3)cc21 (stereo not shown) [Compound 765] | 32.9 | 19.3 | – |
| Cc1nn(C)c2cc(-c3noc(C4CCN(C(=O)CNC(=O)c5ccc(Cl)cn5)CC4(F)F)n3)ccc12 (stereo not shown) [Compound 553] | – | – | IC50 [1, 5]: 5.71 µM; IC50 [2, 6]: 0.885 µM |
| O=C(CC1CC1)N1CCCN(c2noc(-c3ccc4cnn(C5COC5)c4c3)n2)CC1 [Compound 965] | > 45 | 0.01 | – |
| O=S(=O)(C1CCC1)N1CCC(c2noc(-c3ccc4cnn(C5COC5)c4c3)n2)CC1 [Compound 969] | > 45 | 1.42 | – |
| CC(C)(C)OC(=O)N1C[C@@H]2[C@H](C1)[C@H]2C(=O)NCc1cccc(C#N)c1 [Compound 772] | > 45 | > 45 | – |
